According to patent US11292791B2 (priority 2017, dated 2022):

These molecules were tested against BRD4 (Homo sapiens (Human), UniProt O60885). Details: read-out: BRD4 IC50 (μM gmean).

Row | Structure (SMILES) | IC50 [µM]
1 | COC(=O)N1c2ccc3c(nc([C@@H](c4ccccc4)S(C)(=O)=O)n3[C@H]3CC[C@H](C(=O)O)CC3)c2CC[C@@H]1C [Example 779] | 1 to 1000
2 | COC(=O)N1c2ccc3c(nc(Cc4cccc(OC(C)C)n4)n3[C@H]3CC[C@H](C(=O)O)CC3)c2CC[C@@H]1C [Example 780] | 1 to 1000
3 | COC(=O)N1c2ccc3c(nc(C(C)Cn4ccc(C)n4)n3C3CCCC(C(=O)O)C3)c2CC[C@@H]1C (stereo partly shown) [Example 782] | 1 to 1000
4 | COC(=O)N1c2ccc3c(nc(CC(C(=O)O)c4ccc(C)c(F)c4)n3C3CCCOC3)c2CC[C@@H]1C (stereo partly shown) [Example 783] | 1 to 1000
5 | COC(=O)N1c2ccc3c(nc(CCC4CCOCC4)n3[C@H]3CC[C@H](C(=O)O)CC3)c2CC[C@@H]1C [Example 784] | 1 to 1000
6 | COC(=O)N1c2ccc3c(nc(CC(C(=O)O)c4ccc(C(F)F)cc4)n3C3COCC(F)(F)C3)c2CC[C@@H]1C (stereo partly shown) [Example 785] | 1 to 1000
7 | COC(=O)N1c2ccc3c(nc(CC(C(=O)O)c4ccccc4)n3-c3cccc(OC)c3)c2CC[C@@H]1C (stereo partly shown) [Example 786] | 1 to 1000
8 | COC(=O)N1c2ccc3c(nc(N(C)c4ccccc4)n3[C@@H]3CCC[C@@H](C(=O)O)C3)c2CC[C@@H]1C [Example 787] | 1 to 1000
9 | COC(=O)N1c2ccc3c(nc(CN4C(=O)CCc5ccccc54)n3[C@@H]3CCC[C@@H](C(=O)O)C3)c2CC[C@@H]1C [Example 789] | 1 to 1000
10 | COC(=O)N1c2ccc3c(nc(CC(C(=O)O)c4ccccc4)n3C3CCCC(OC)C3)c2CC[C@@H]1C (stereo partly shown) [Example 791] | 1 to 1000
11 | COC(=O)N1c2ccc3c(nc(OCc4ccccc4)n3[C@H]3CC[C@H](C(=O)O)CC3)c2CC[C@@H]1C [Example 792] | 1 to 1000
12 | COC(=O)N1c2ccc3c(nc(Cc4cnc5cc[nH]c5n4)n3[C@@H]3CCC[C@@H](C(=O)O)C3)c2CC[C@@H]1C [Example 795] | 1 to 1000
13 | COC(=O)N1c2ccc3c(nc(CC(=O)N4CCCC4)n3[C@@H]3CCC[C@@H](C(=O)O)C3)c2CC[C@@H]1C [Example 798] | 1 to 1000
14 | COC(=O)N1c2ccc3c(nc(Nc4cccc(F)c4)n3[C@@H]3CCC[C@@H](C(=O)O)C3)c2CC[C@@H]1C [Example 802] | 1 to 1000
15 | COC(=O)N1c2ccc3c(nc(C(C)Cc4ccccc4)n3C3CCNCC3)c2CC[C@@H]1C (stereo partly shown) [Example 803] | 1 to 1000
16 | COC(=O)N1c2ccc3c(nc(CC[C@H]4CCOC4)n3[C@@H]3CCC[C@@H](C(=O)O)C3)c2CC[C@@H]1C [Example 804] | 1 to 1000
17 | COC(=O)N1c2ccc3c(nc(N(C)c4ccc(F)cc4)n3[C@H]3CC[C@H](C(=O)O)CC3)c2CC[C@@H]1C [Example 805] | 1 to 1000
18 | COC(=O)N1c2ccc3c(nc(CC4CCCOC4)n3C3CCCC(C(=O)O)C3)c2CC[C@@H]1C (stereo partly shown) [Example 806] | 1 to 1000
19 | COC(=O)N1c2ccc3c(nc(OCCc4ccccc4)n3[C@H]3CC[C@H](C(=O)O)CC3)c2CC[C@@H]1C [Example 807] | 1 to 1000
20 | COC(=O)N1c2ccc3c(nc(OCCn4cc(Cl)cn4)n3[C@@H]3CCC[C@@H](C(=O)O)C3)c2CC[C@@H]1C [Example 810] | 1 to 1000
21 | COC(=O)N1c2ccc3c(nc(C(CO)c4ccccc4)n3C3CCC(C(=O)O)CC3)c2CC[C@@H]1C (stereo partly shown) [Example 812] | 1 to 1000
22 | COC(=O)N1c2ccc3c(nc(S(=O)(=O)c4ccccc4)n3[C@@H]3CCC[C@@H](C(=O)O)C3)c2CC[C@@H]1C [Example 813] | 1 to 1000
23 | COC(=O)N1c2ccc3c(nc(S(=O)(=O)Cc4ccccc4)n3[C@@H]3CCC[C@@H](C(=O)O)C3)c2CC[C@@H]1C [Example 814] | 1 to 1000

Row | Structure (SMILES) | IC50 [µM]
24 | COC(=O)N1c2ccc3c(nc(Cc4nccc(C)n4)n3[C@@H]3CCC[C@@H](C(=O)O)C3)c2CC[C@@H]1C [Example 820] | 1 to 1000
25 | C/C=C(/Oc1ccccc1)c1nc2c3c(ccc2n1[C@H]1CC[C@H](C(=O)O)CC1)N(C(=O)OC)[C@@H](C)CC3 [Example 821] | 1 to 1000
26 | COC(=O)N1c2ccc3c(nc(C4(Oc5cnccn5)CC4)n3[C@H]3CC[C@H](C(=O)O)CC3)c2CC[C@@H]1C [Example 823] | 1 to 1000
27 | COC(=O)N1c2ccc3c(nc(C(C)Cn4ccc(C)n4)n3C3CCC(C(=O)O)CC3)c2CC[C@@H]1C (stereo partly shown) [Example 824] | 1 to 1000
28 | COC(=O)N1c2ccc3c(nc(C(C)Cn4ccc(Cl)n4)n3C3CCCC(C(=O)O)C3)c2CC[C@@H]1C (stereo partly shown) [Example 827] | 1 to 1000
29 | COC(=O)N1c2ccc3c(nc(Cc4ncc(Cl)cn4)n3[C@@H]3CCC[C@@H](C(=O)O)C3)c2CC[C@@H]1C [Example 828] | 1 to 1000
30 | COC(=O)N1c2ccc3c(nc(CC(C(=O)O)c4ccc(C)cc4)n3C3CCCOC3)c2CC[C@@H]1C (stereo partly shown) [Example 829] | 1 to 1000
31 | COC(=O)N1c2ccc3c(nc(Nc4ccc(Cl)cc4)n3[C@@H]3CCC[C@@H](C(=O)O)C3)c2CC[C@@H]1C [Example 831] | 1 to 1000
32 | COC(=O)N1c2ccc3c(nc(C(C)Oc4cnccn4)n3C3CCC(C(=O)O)CC3)c2CC[C@@H]1C (stereo partly shown) [Example 833] | 1 to 1000
33 | COC(=O)N1c2ccc3c(nc(C(C)Cn4cc(C)cn4)n3C3CCS(=O)(=O)C3)c2CC[C@@H]1C (stereo partly shown) [Example 834] | 1 to 1000
34 | COC(=O)[C@@H]1CCC[C@@H](n2c(Cc3ccccc3)nc3c4c(ccc32)N(C(=O)OC)[C@@H](C)CC4)C1 [Example 840] | 1 to 1000
35 | COC(=O)N1c2ccc3c(nc(Nc4ccccc4)n3[C@H]3CC[C@H](C(=O)O)CC3)c2CC[C@@H]1C [Example 843] | 1 to 1000
36 | COC(=O)N1c2ccc3c(nc(C(C)Cn4cc(C)cn4)n3C3CCS(=O)(=O)C3)c2CC[C@@H]1C (stereo partly shown) [Example 844] | 1 to 1000
37 | COC(=O)N1c2ccc3c(nc(CC(C(=O)O)c4ccc(C)c(F)c4)n3C3CCCOC3)c2CC[C@@H]1C (stereo partly shown) [Example 845] | 1 to 1000
38 | COC(=O)N1c2ccc3c(nc(Nc4ccc(OC)cc4F)n3[C@@H]3CCC[C@@H](C(=O)O)C3)c2CC[C@@H]1C [Example 846] | 1 to 1000
39 | COC(=O)N1c2ccc3c(nc(CC(C(=O)O)c4ccccc4)n3-c3ccc(OC)cc3)c2CC[C@@H]1C (stereo partly shown) [Example 849] | 1 to 1000
40 | COC(=O)N1c2ccc3c(nc(Nc4ccc(OC)cc4F)n3[C@H]3CC[C@H](C(=O)O)CC3)c2CC[C@@H]1C [Example 851] | 1 to 1000
41 | COC(=O)N1c2ccc3c(nc(CC(C(=O)O)c4cccc5ccccc45)n3C3CCCOC3)c2CC[C@@H]1C (stereo partly shown) [Example 852] | 1 to 1000
42 | COC(=O)N1c2ccc3c(nc(C4(c5cnccn5)CC4)n3[C@@H]3CCC[C@@H](C(=O)O)C3)c2CC[C@@H]1C [Example 856] | 1 to 1000
43 | COC(=O)N1c2ccc3c(nc(Cc4ccc(N5CCCC5=O)cc4)n3[C@@H]3CCC[C@@H](C(=O)O)C3)c2CC[C@@H]1C [Example 858] | 1 to 1000
44 | COC(=O)N1c2ccc3c(nc(C(C)Cn4cccn4)n3C3CCCS(=O)(=O)C3)c2CC[C@@H]1C (stereo partly shown) [Example 860] | 1 to 1000
45 | COC(=O)N1c2ccc3c(nc(C(C)Cn4cc(C(F)F)cn4)n3C3CCCC(C(=O)O)C3)c2CC[C@@H]1C (stereo partly shown) [Example 862] | 1 to 1000
46 | COC(=O)N1c2ccc3c(nc(CC4CCOCC4)n3[C@@H]3CCC[C@@H](C(=O)O)C3)c2CC[C@@H]1C [Example 863] | 1 to 1000

Row | Structure (SMILES) | IC50 [µM]
47 | COC(=O)N1c2ccc3c(nc(C(C)Cc4cnn(C)c4)n3C3CCCC(C(=O)O)C3)c2CC[C@@H]1C (stereo partly shown) [Example 867] | 1 to 1000
48 | COC(=O)N1c2ccc3c(nc(CC(C(=O)O)c4cccc(C(F)F)c4)n3C3CCCOC3)c2CC[C@@H]1C (stereo partly shown) [Example 868] | 1 to 1000
49 | COC(=O)N1c2ccc3c(nc(CC(C(=O)O)c4ccc5ccccc5c4)n3C3CCCOC3)c2CC[C@@H]1C (stereo partly shown) [Example 870] | 1 to 1000
50 | COC(=O)N1c2ccc3c(nc(CCn4ccccc4=O)n3[C@@H]3CCC[C@@H](C(=O)O)C3)c2CC[C@@H]1C [Example 871] | 1 to 1000
51 | COC(=O)N1c2ccc3c(nc(CC(C(=O)O)c4ccc(C)cc4)n3C3CCCOC3)c2CC[C@@H]1C (stereo partly shown) [Example 872] | 1 to 1000
52 | COC(=O)N1c2ccc3c(nc(Nc4ccc(F)cc4)n3[C@@H]3CCC[C@@H](C(=O)O)C3)c2CC[C@@H]1C [Example 876] | 1 to 1000
53 | COC(=O)N1c2ccc3c(nc(C(C)Cn4cccn4)n3C3CCCC(C(=O)O)C3)c2CC[C@@H]1C (stereo partly shown) [Example 878] | 1 to 1000
54 | COC(=O)N1c2ccc3c(nc(Nc4ccc(F)cc4)n3[C@H]3CC[C@H](C(=O)O)CC3)c2CC[C@@H]1C [Example 880] | 1 to 1000
55 | COC(=O)N1c2ccc3c(nc(S(=O)(=O)Cc4ccccc4)n3[C@H]3CC[C@H](C(=O)O)CC3)c2CC[C@@H]1C [Example 882] | 1 to 1000
56 | COC(=O)N1c2ccc3c(nc(CC(C(=O)O)c4cccc(C)c4)n3C3CCCOC3)c2CC[C@@H]1C (stereo partly shown) [Example 885] | 1 to 1000
57 | COC(=O)N1c2ccc3c(nc(C(C)Oc4cnccn4)n3C3CCC(C(=O)O)CC3)c2CC[C@@H]1C (stereo partly shown) [Example 887] | 1 to 1000
58 | COC(=O)N1c2ccc3c(nc(CC(C(=O)O)c4ccc(C(C)C)cc4)n3C3CCCOC3)c2CC[C@@H]1C (stereo partly shown) [Example 888] | 1 to 1000
59 | COC(=O)N1c2ccc3c(nc(CC(C(=O)O)c4ccccc4)n3C3COCC(F)(F)C3)c2CC[C@@H]1C (stereo partly shown) [Example 891] | 1 to 1000
60 | COC(=O)N1c2ccc3c(nc(CC4CCN(C(C)=O)CC4)n3[C@@H]3CCC[C@@H](C(=O)O)C3)c2CC[C@@H]1C [Example 892] | 1 to 1000
61 | COC(=O)N1c2ccc3c(nc(C(C)Cc4cnn(C)c4)n3C3CCC(C(=O)O)CC3)c2CC[C@@H]1C (stereo partly shown) [Example 894] | 1 to 1000
62 | COC(=O)N1c2ccc3c(nc(S(=O)(=O)c4ccccc4)n3[C@H]3CC[C@H](C(=O)O)CC3)c2CC[C@@H]1C [Example 895] | 1 to 1000
63 | COC(=O)N1c2ccc3c(nc(CC(=O)N4CCCCC4)n3[C@@H]3CCC[C@@H](C(=O)O)C3)c2CC[C@@H]1C [Example 896] | 1 to 1000
64 | COC(=O)N1c2ccc3c(nc(CC(C(=O)O)c4ccc(Cl)cc4)n3C3CCCOC3)c2CC[C@@H]1C (stereo partly shown) [Example 900] | 1 to 1000
65 | COC(=O)N1c2ccc3c(nc(CC(C(=O)O)c4ccc(C(F)F)cc4)n3C3CCCOC3)c2CC[C@@H]1C (stereo partly shown) [Example 901] | 1 to 1000
66 | COC(=O)N1c2ccc3c(nc(CC(C(=O)O)c4ccc(C(F)F)cc4)n3C3CCCOC3)c2CC[C@@H]1C (stereo partly shown) [Example 902] | 1 to 1000
67 | COC(=O)N1c2ccc3c(nc(CC(C(=O)O)c4ccccc4)n3C3COCC(F)(F)C3)c2CC[C@@H]1C (stereo partly shown) [Example 903] | 1 to 1000
